We go through 41 molecules from the C3SDB collision cross section collection.

For the data set the following is noted: instrument: DT, single field, calibrated with Agilent tune mix (Agilent).

Where “and” joins values, the source holds several entries; their conditions need not be identical. Equal values may be shown once. Where a name gives a salt, the structure may show the parent alone.

Take `CCCCCCCCCC(=O)SCCNC(=O)CCNC(=O)[C@H](O)C(C)(C)COP(=O)(O)OP(=O)(O)OC[C@H]1O[C@@H](n2cnc3c(N)ncnc32)[C@H](O)[C@@H]1OP(=O)(O)O` [Decanoyl-CoA]: the “collision cross section (N2)” value by setting is: ([M+H]+) 277 Å²; ([M-H]-) 276 Å².

For `Nc1nc(=O)c2ncn([C@H]3C[C@H](O)[C@@H](CO)O3)c2[nH]1` [Deoxyguanosine], the “collision cross section (N2)” value was found to be 171.7 Å² ([M+Na]+) and 156.76 Å² ([M-H]-).

As to `Cc1cn([C@H]2C[C@H](O)[C@@H](COP(=O)(O)OP(=O)(O)O)O2)c(=O)[nH]c1=O` [Deoxythymidine 5'-diphosphate], the “collision cross section (N2)” value by setting is: ([M+Na]+) 177.6 Å²; ([M-H]-) 172.11 Å². Turning to `O=c1ccn([C@H]2C[C@H](O)[C@@H](COP(=O)(O)O)O2)c(=O)[nH]1` [Deoxyuridine monophosphate], the “collision cross section (N2)” value is given as 167.5 Å² ([M+Na]+) and 156 Å² ([M-H]-). Consider `C[C@@H]1NC(=O)N[C@@H]1CCCCCC(=O)O` [Dethiobiotin], for which the “collision cross section (N2)” value reads like this: ([M+2Na-3H]-) 162.06 Å²; ([M+H]+) 144.1 Å². Regarding `NC(CCCC(N)C(=O)O)C(=O)O` (centres undefined) [Diaminopimelic acid], the “collision cross section (N2)” value amounted to 140.8 Å² ([M+H]+) and 134.28 Å² ([M-H]-).

For `CC1CNC(=O)NC1=O` (centres undefined) [Dihydrothymine], where the note is “[M+H]+”, the “collision cross section (N2)” value was determined as 131.2 Å². `O=C(CO)COP(=O)(O)O` [Dihydroxyacetone phosphate]: the “collision cross section (N2)” value ([M+Na]+) is reported as 146.7 Å². Regarding `CCCCCCCCCCCC(=O)O` [Dodecanoic acid], the “collision cross section (N2)” value ([M-H]-) was 152.58 Å². Consider `O=C(O)CN(CCN(CC(=O)O)CC(=O)O)CC(=O)O` [EDTA], for which the “collision cross section (N2)” value amounted to 159.6 Å² ([M+H]+) and 151.17 Å² ([M-H]-). As to `C=C1CC[C@H](O)C/C1=C/C=C1\CCC[C@]2(C)[C@@H]([C@H](C)/C=C/[C@H](C)C(C)C)CC[C@@H]12` [Ergocalciferol], where the note is “[M+H]+”, the “collision cross section (N2)” value was 202.4 Å² and 203.2 Å². Regarding `C[C@]12CC[C@@H]3c4ccc(O[C@@H]5O[C@H](C(=O)O)[C@@H](O)[C@H](O)[C@H]5O)cc4CC[C@H]3[C@@H]1CCC2=O` [Estrone-3-glucuronide], the “collision cross section (N2)” value ([M-H]-) is listed as 215.74 Å².

As to `CCO[C@@H]1O[C@H](C(=O)O)[C@@H](O)[C@H](O)[C@H]1O` [Ethyl glucuronide], for the setting “[M-H]-”, the “collision cross section (N2)” value was found to be 143.97 Å². Turning to `CC(C)=CCC/C(C)=C/CC/C(C)=C/COP(=O)(O)OP(=O)(O)O` [Farnesyl pyrophosphate], the “collision cross section (N2)” value ([M-H]-) came to 183.85 Å².

On to `Cc1cc2nc3c(=O)[nH]c(=O)nc-3n(C[C@H](O)[C@H](O)[C@H](O)COP(=O)(O)O)c2cc1C` [Flavin mononucleotide], for which the “collision cross section (N2)” value worked out at 199.1 Å² ([M+H]+) and 194.92 Å² ([M-H]-). With `O=P(O)(O)OC[C@H]1O[C@@](O)(COP(=O)(O)O)[C@@H](O)[C@@H]1O` [Fructose 1,6-bisphosphate], the “collision cross section (N2)” value ([M+Na]+) came to 168.2 Å². As to `CCCCC/C=C\C/C=C\C/C=C\CCCCC(=O)O` [Gamma-Linolenic acid], for the setting “[M-H]-”, the “collision cross section (N2)” value was found to be 172.84 Å². For `O=P(O)(O)OC[C@H]1OC(O)[C@H](O)[C@@H](O)[C@@H]1O` (some centres undefined) [Glucose 6-phosphate], the “collision cross section (N2)” value ([M+Na]+) was determined as 158.1 Å².

Consider `O=P(O)(O)OCC(O)CO` (centres undefined) [Glycerol 3-phosphate], for which the “collision cross section (N2)” value ([M-H]-) stood at 124.86 Å². In the case of `C[C@H](CCC(=O)NCC(=O)O)[C@H]1CC[C@H]2[C@@H]3[C@H](O)C[C@@H]4C[C@H](O)CC[C@]4(C)[C@H]3C[C@H](O)[C@]12C` [Glycocholic acid], the “collision cross section (N2)” value runs as follows: ([M+Na]+) 202 Å²; ([M-H]-) 200.58 Å². For `C[C@H](CCC(=O)NCC(=O)O)[C@H]1CC[C@H]2[C@@H]3CC[C@@H]4C[C@H](O)CC[C@]4(C)[C@H]3CC[C@]12C` [Glycolithocholic acid], the “collision cross section (N2)” value was 200.9 Å² ([M+H]+) and 205.49 Å² ([M+Na-2H]-).

As for `COc1ccc2c(c1)[nH]c1c(C)nccc12` [Harmine], the “collision cross section (N2)” value by setting is: ([M+H]+) 146 Å²; ([M-H]-) 145.28 Å². For `O=C(O)CNC(=O)c1ccccc1` [Hippuric acid], the “collision cross section (N2)” value ([M-H]-) is on record as 139.72 Å². `COc1cc(CC(=O)O)ccc1O` [Homovanillic acid]: the “collision cross section (N2)” value ([M-H]-) came to 134.15 Å².

Regarding `C[C@]12CCC(=O)C=C1CC[C@@H]1[C@@H]2[C@@H](O)C[C@@]2(C)[C@H]1CC[C@]2(O)C(=O)CO` [Hydrocortisone (Cortisol)], under “[M+H]+”, the “collision cross section (N2)” value came to 189.1 Å². Turning to `O=C(O)C(O)Cc1ccc(O)cc1` (centres undefined) [Hydroxyphenyllactic acid], under “[M-H]-”, the “collision cross section (N2)” value is 139.4 Å². For `O=C(O)Cc1cnc[nH]1` [Imidazoleacetic acid], the “collision cross section (N2)” value ([M+H]+) is recorded as 123.1 Å².

On to `O=C(O)c1c[nH]c2ccccc12` [Indole-3-carboxylic acid], for which the “collision cross section (N2)” value came to 132.4 Å² ([M+H]+) and 124.5 Å² ([M-H]-). As for `c1ccc2[nH]ccc2c1` [Indole], the “collision cross section (N2)” value is, setting by setting: ([M+H]+) 121 Å²; ([M-H]-) 117.08 Å². Regarding `O=C(O)Cc1c[nH]c2ccccc12` [Indoleacetic acid], under “[M+H]+”, the “collision cross section (N2)” value was 136.2 Å². For the molecule `O=C(O)C(O)Cc1c[nH]c2ccccc12` (centres undefined) [Indolelactic acid], the “collision cross section (N2)” value was determined as 143.8 Å² ([M+H]+) and 146.51 Å² ([M-H]-). Turning to `O=S(=O)(O)Oc1c[nH]c2ccccc12` [Indoxyl sulfate], for the setting “[M-H]-”, the “collision cross section (N2)” value is given as 140.6 Å². Turning to `O=c1nc[nH]c2c1ncn2[C@@H]1O[C@H](COP(=O)(O)OP(=O)(O)O)[C@@H](O)[C@H]1O` [Inosine diphosphate], the “collision cross section (N2)” value reads like this: ([M+H]+) 185.6 Å²; ([M-H]-) 176.13 Å². On to `O=c1nc[nH]c2c1ncn2[C@@H]1O[C@H](COP(=O)(O)OP(=O)(O)OP(=O)(O)O)[C@@H](O)[C@H]1O` [Inosine triphosphate], for which the “collision cross section (N2)” value ([M-H]-) is 187.3 Å².

As for `CC(C)C(=O)SCCNC(=O)CCNC(=O)[C@H](O)C(C)(C)COP(=O)(O)OP(=O)(O)OC[C@H]1O[C@@H](n2cnc3c(N)ncnc32)[C@H](O)[C@@H]1OP(=O)(O)O` [Isobutyryl-CoA], the “collision cross section (N2)” value turned out to be 252 Å² ([M+H]+) and 254.31 Å² ([M-H]-). In the case of `CC(C)C(=O)NCC(=O)O` [Isobutyrylglycine], the “collision cross section (N2)” value ([M-H]-) is 132.07 Å². On the same count and under the same terms, then `CC(C)CCC(=O)O` [Isocaproic acid], with 127.48 Å².

As for `CC(C)CC(=O)NCC(=O)O` [Isovalerylglycine], the “collision cross section (N2)” value reads like this: ([M+H]+) 155.1 Å²; ([M-H]-) 138.14 Å². Take `O=C(O)c1cc(=O)c2ccccc2[nH]1` [Kynurenic acid]: the “collision cross section (N2)” value ([M+H]+) is on record as 137 Å² and the “collision cross section (N2)” value ([M+Na-2H]-) is reported as 149.51 Å². For `O=C1O[C@H]([C@@H](O)CO)C(O)=C1O` [L-Ascorbic acid], the “collision cross section (N2)” value ([M+H]+) was 138.6 Å².

As for `C[N+](C)(C)C[C@H](O)CC(=O)[O-]` [L-Carnitine], for the setting “[M+H]+”, the “collision cross section (N2)” value came to 133.1 Å².
